The test system of one test is Fusarium graminearum. The test is described as follows: microbe, parasite or virus in culture. The class given is cell-based. The note with it: Fusarium graminearum, read-out: Median Effective Concentration (EC50) for Growth Inhibition.
A further test deals with Fusarium asiaticum. Kind of test: microbe, parasite or virus in culture. In kind it is cell-based. The note with it: Fusarium asiaticum, read-out: Median Effective Concentration (EC50) for Growth Inhibition.
Test [1] relates to wheat scab. In kind it is in vivo. The conditions noted are these: Carbendazim 40 g a.i. per mu, control agent.
Test [2] has as its system wheat scab. In kind it is in vivo. The conditions noted are these: Carbendazim 40 g a.i. per mu.
For a further test, the system named is leaf blight. More on the design: species or system wheat. The conditions noted are these: in vivo.
For a further test, the system named is rust. Details: species or system wheat. The note with it: in vivo.
Details of test [3]: species or system wheat. The conditions noted are these: in vivo.
Test [4] relates to wheat scab. In kind it is in vivo. The conditions noted are these: Carbendazim 50 g a.i.
For test [5], the system named is wheat scab. In kind it is in vivo. The conditions noted are these: 80 g of 50% of Carbendazim Wettable Powder.

In brackets after ≈: the same amount, converted by molar mass. Read-outs that look alike come from different tables or passages of the source.

`COC(=O)Nc1nc2ccccc2[nH]1` [Carbendazim, carbendazim]: the EC50 in the test with Fusarium graminearum and with Fusarium asiaticum was 0.45 µg/mL (≈ 2.35 µM) in each case. Besides, the “Disease Index Prevention Effect % Actual Prevention Effect” value in the test with wheat scab [1] is reported as 67.5%. In addition, the “Disease Index Prevention Effect % Head Blight” value in the test with wheat scab [2] was found to be 38.60%; with wheat scab [4], 49.04%; in the test with wheat scab [5], 64.6%. For the same molecule, in the test on leaf blight, the “Disease Index Prevention Effect % Leaf Blight” value is listed as 48.50%. Besides, the “Disease Index Prevention Effect % Rust” value in the test on rust turned out to be 61.20%. Also, the “Thousand Kernel Weight” value in test [3] amounted to 41.60 g.

Values taken from patent publication US10588316B2 (priority 2015, dated 2020).
